Legend:
[1] = Plasma corticosterone in Sprague Dawley rats; type: in vivo, rat; conditions: for Corticosterone, Mean: 16 hours
Experimental: Plasma corticosterone levels are evaluated using Sprague Dawley Rats (Harlan, Indianapolis), weighing approximately 220 g and acclimated for at least 72 hours before handling. The rats are then dosed with vehicle (20 mM citrate buffer, pH 7), semaglutide (10 nmol/kg), or compounds of the present invention at 3, 10 or 30 nmol/kg s.c. with 8 rats per dose group. The rats are decapitated 16 hours later. Blood is collected into EDTA tubes on ice, then centrifuged 5 minutes at 8000 RPM in a Eppendorf 5402 tabletop centrifuge. Plasma is stored at −80° C. until analysis.
For corticosterone analysis, corticosterone standards (Sigma, 27840) are prepared by serial dilutions in HPLC-grade methanol, H2O and the addition of 5% charcoal stripped rat serum (Bioreclamation, RATSRM-STRPD-HEV). Rat plasma samples are diluted with PBS, precipitated with cold methanol, incubated for 20 minutes at −20° C., and then centrifuged at 14,000 RPM with an Eppendorf 5417R at 4° C. Supernatants are extracted, evaporated under a stream of N2 gas, and reconstituted in MeOH/H2O (1:1) solution.

[2] = Pharmacokinetics in cynomolgus monkeys; type: in vivo; conditions: cynomolgus monkey, plasma
Experimental: The compounds are administered by a single intravenous or subcutaneous dose (0.2 mg/kg) in 20 mM citrate buffer (pH 7.0) at a volume of 0.21 ml/kg. Blood is collected from each animal at 2, 4, 8, 12, 24, 48, 72, 96, 120, 144, 168, 204, 240, and 312 hours post-dosage. The plasma concentrations of compounds of the present invention are determined by a LC/MS method. Briefly, a compound of the present invention is extracted from 100% Monkey plasma sample (50 μl) diluted with 1×PBS (150 μl) and mixed with N-butanol (400 μl). Three distinct liquid layers are formed with the compound located in the top layer. A volume of 200 μl is transferred to a v-bottom 96-well plate, dried down using heated Nitrogen gas and reconstituted with 100 μl of 30% acetonitrile/0.1% formic acid. 20 μl of the reconstituted sample is injected onto a Supelco Analytical Discovery bio wide C5 3 μm column. The column effluent is directed into a Thermo Q-Exactive mass spectrometer for detection and quantitation.

human GLP-1R = target: T1, human GLP-1R (Homo sapiens, UniProt P43220); assay: Functional hGLP-1R cAMP assay in HEK-293 clonal cells; type: cell-based; conditions: HEK293; percent of maximal response of hGLP-1(7-36)NH2
T1 construct: expressed in transfected cells; host or cells: 293HEK, Hygromycin-selected; crude plasma membranes
T1 sequence (P43220 24-463): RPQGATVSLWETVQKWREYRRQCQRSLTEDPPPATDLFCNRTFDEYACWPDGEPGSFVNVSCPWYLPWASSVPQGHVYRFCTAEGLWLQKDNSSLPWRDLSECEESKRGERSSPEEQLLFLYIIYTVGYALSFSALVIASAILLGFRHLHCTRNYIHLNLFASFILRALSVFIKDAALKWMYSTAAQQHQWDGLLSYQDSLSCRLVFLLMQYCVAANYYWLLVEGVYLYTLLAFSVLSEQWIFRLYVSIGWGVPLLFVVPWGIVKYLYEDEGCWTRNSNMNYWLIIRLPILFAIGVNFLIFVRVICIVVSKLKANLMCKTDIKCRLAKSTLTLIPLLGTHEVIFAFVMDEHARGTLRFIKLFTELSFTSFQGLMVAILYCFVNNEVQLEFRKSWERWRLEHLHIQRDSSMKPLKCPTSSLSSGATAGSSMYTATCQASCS
Experimental: After an incubation of 60 minutes at room temperature, the resulting increase in intracellular cAMP is quantitatively determined using the CisBio cAMP Dynamic 2 HTRF Assay Kit (Bedford, Mass.). Briefly, cAMP levels within the cell are detected by adding the cAMP-d2 conjugate in cell lysis buffer (20 μl) followed by the antibody anti-cAMP-Eu^3+-Cryptate, also in cell lysis buffer (20 μl). The resulting competitive assay is incubated for at least 60 minutes at room temperature, then detected using a PerkinElmer Envision® instrument with excitation at 320 nm and emission at 665 nm and 620 nm Envision units (emission at 665 nm/620 nm*10,000) are inversely proportional to the amount of cAMP present and are converted to nM cAMP per well using a cAMP standard curve. […] A relative EC50 value and percent top (Emax) is derived by non-linear regression analysis using the percent maximal response versus the concentration of the compound of the present invention, fitted to a four-parameter logistic equation.

human GIP-R = target: T2, human GIP-R (Homo sapiens, UniProt P48546); assay: Functional hGIP-R cAMP assay in HEK-293 clonal cells; conditions: HEK293, read-out: Human GIP-R Emax
T2 sequence (P48546 22-466): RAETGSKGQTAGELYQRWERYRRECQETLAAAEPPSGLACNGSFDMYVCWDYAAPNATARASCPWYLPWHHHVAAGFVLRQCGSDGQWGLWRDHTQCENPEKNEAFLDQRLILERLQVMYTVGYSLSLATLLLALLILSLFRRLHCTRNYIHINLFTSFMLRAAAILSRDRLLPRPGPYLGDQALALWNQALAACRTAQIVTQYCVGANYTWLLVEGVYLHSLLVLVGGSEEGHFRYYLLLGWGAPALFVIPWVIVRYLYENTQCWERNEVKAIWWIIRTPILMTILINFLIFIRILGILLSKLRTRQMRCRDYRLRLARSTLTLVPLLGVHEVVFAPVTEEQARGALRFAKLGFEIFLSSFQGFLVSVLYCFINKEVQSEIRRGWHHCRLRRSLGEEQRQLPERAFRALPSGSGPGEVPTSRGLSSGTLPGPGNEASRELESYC

Human GCGR = Human GCGR (Homo sapiens, UniProt P47871); assay: Functional hGCGR cAMP assay in HEK-293 clonal cells
Human GCGR, sequence (P47871 26-477): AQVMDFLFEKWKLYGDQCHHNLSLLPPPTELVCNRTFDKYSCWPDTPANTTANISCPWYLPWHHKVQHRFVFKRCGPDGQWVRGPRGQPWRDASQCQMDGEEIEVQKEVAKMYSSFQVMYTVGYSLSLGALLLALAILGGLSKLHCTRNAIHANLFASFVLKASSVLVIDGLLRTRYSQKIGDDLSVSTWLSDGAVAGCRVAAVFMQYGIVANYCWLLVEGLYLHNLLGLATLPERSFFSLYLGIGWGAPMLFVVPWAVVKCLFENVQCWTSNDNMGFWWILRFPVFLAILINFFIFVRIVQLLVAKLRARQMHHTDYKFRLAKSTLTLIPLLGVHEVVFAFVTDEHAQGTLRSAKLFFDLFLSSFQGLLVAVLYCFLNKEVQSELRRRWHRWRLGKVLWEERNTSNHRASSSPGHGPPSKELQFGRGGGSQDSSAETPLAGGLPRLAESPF

mouse islets = assay: Mouse islet insulin secretion; type: cell-based; conditions: read-out: Mouse islet insulin secretion Mean ED50
Experimental: To assess action of compounds of the present invention in a system representing physiological GLP-1R and GIP-R expression levels insulin secretion, compounds are tested for effects on insulin secretion from wild-type rodent islets.
After common bile duct cannulation in male C57B1/6 mice (22-26 g) or male Sprague-Dawley rats (approx. 250 g), the pancreas is distended with Hank's buffer (3 ml for mice or 10 ml for rats, containing 2% BSA and 0.75 mg/ml Clzyme collagenase (VitaCyte). Subsequently, tissues are digested in Hank's buffer at 37° C. for 11-13 minutes (mice) or 14-16 minutes for rat pancreata. Purified islets (Histopaque-1100 gradient [Sigma-Aldrich], […] at 750× gravity) are cultured overnight in RPMI-1640 medium (Invitrogen) containing 10% FBS, 100 U/ml penicillin and 100 μg/ml streptomycin, and preconditioned by starvation in Earle's Balanced Salt Solution (EBSS) supplemented with 0.1% BSA and 2.8 mM glucose. Subsequently, islets are incubated in EBSS (Invitrogen) supplemented with 0.1% BSA, 2.8-11.2 mM glucose and increasing levels of compound (6 batches of 4 islets/condition). GLP-1(7-36)amide (30 nM) is used as a positive control. Insulin is measured over 90 minutes in supernatant using the MSD Insulin Assay (Meso Scale, Gaithersburg, Md.).

Row | SMILES | Corticosterone, Mean ([1]; 3 nmol/kg s.c.) [ng/mL] | Corticosterone, Mean ([1]; 10 nmol/kg s.c.) [ng/mL] | Corticosterone, Mean ([1]; 30 nmol/kg s.c.) [ng/mL] | increase in plasma corticosterone levels over control ([1]; Example 1 at 3, 10, 30 nmol/kg, semaglutide 10 nmol/kg) | Tmax ([2]; sc, single subcutaneous dose 0.2 mg/kg, read-out: time of mean maximum plasma concentration) [h] | clearance ([2]; 0.2 mg/kg single dose) [mL/day/kg] | half-life ([2]; 0.2 mg/kg single dose, read-out: mean half-life (converted)) [h] | bioavailability ([2]; subcutaneous vs intravenous, 0.2 mg/kg) [%] | Emax (human GLP-1R) [%] | Emax (human GIP-R) [%] | EC50 (Human GCGR) [nM] | EC50 (mouse islets) [nM]
1 | CC[C@H](C)[C@H](NC(=O)[C@H](CC(C)C)NC(=O)[C@H](Cc1c[nH]c2ccccc12)NC(=O)[C@H](CCC(N)=O)NC(=O)[C@@H](NC(=O)[C@H](Cc1ccccc1)NC(=O)[C@H](C)NC(=O)[C@H](CCCCNC(=O)COCCOCCNC(=O)COCCOCCNC(=O)CC[C@H](NC(=O)CCCCCCCCCCCCCCCCCCC(=O)O)C(=O)O)NC(=O)[C@H](CCC(N)=O)NC(=O)[C@H](C)NC(=O)[C@@H](NC(=O)[C@H](CCCCN)NC(=O)[C@H](CC(=O)O)NC(=O)[C@H](CC(C)C)NC(=O)C(C)(C)NC(=O)[C@@H](NC(=O)[C@H](CO)NC(=O)[C@H](Cc1ccc(O)cc1)NC(=O)[C@H](CC(=O)O)NC(=O)[C@H](CO)NC(=O)[C@@H](NC(=O)[C@H](Cc1ccccc1)NC(=O)[C@@H](NC(=O)CNC(=O)[C@H](CCC(=O)O)NC(=O)C(C)(C)NC(=O)[C@@H](N)Cc1ccc(O)cc1)[C@@H](C)O)[C@@H](C)O)[C@@H](C)CC)[C@@H](C)CC)C(C)C)C(=O)N[C@@H](C)C(=O)NCC(=O)NCC(=O)N1CCC[C@H]1C(=O)N[C@@H](CO)C(=O)N[C@@H](CO)C(=O)NCC(=O)N[C@@H](C)C(=O)N1CCC[C@H]1C(=O)N1CCC[C@H]1C(=O)N1CCC[C@H]1C(=O)N[C@@H](CO)C(N)=O [Example 1] | 52.21 | 32.46 | 31.35 | no increase in plasma corticosterone levels | ~8 | 17.5 | 55 | ~83 | 85.2 ± 4.4 | 97.9 ± 3 | > 1000 | 
2 | CC[C@H](C)[C@H](NC(=O)[C@H](CC(C)C)NC(=O)[C@H](Cc1c[nH]c2ccccc12)NC(=O)[C@H](CCC(N)=O)NC(=O)[C@@H](NC(=O)[C@H](Cc1ccccc1)NC(=O)[C@H](C)NC(=O)[C@H](CCCCNC(=O)COCCOCCNC(=O)COCCOCCNC(=O)CC[C@H](NC(=O)CC[C@H](NC(=O)CCCCCCCCCCCCCCCCC(=O)O)C(=O)O)C(=O)O)NC(=O)[C@H](CCC(N)=O)NC(=O)[C@H](C)NC(=O)[C@@H](NC(=O)[C@H](CCCCN)NC(=O)[C@H](CC(=O)O)NC(=O)[C@H](CC(C)C)NC(=O)C(C)(C)NC(=O)[C@@H](NC(=O)[C@H](CO)NC(=O)[C@H](Cc1ccc(O)cc1)NC(=O)[C@H](CC(=O)O)NC(=O)[C@H](CO)NC(=O)[C@@H](NC(=O)[C@H](Cc1ccccc1)NC(=O)[C@@H](NC(=O)CNC(=O)[C@H](CCC(=O)O)NC(=O)C(C)(C)NC(=O)[C@@H](N)Cc1ccc(O)cc1)[C@@H](C)O)[C@@H](C)O)[C@@H](C)CC)[C@@H](C)CC)C(C)C)C(=O)N[C@@H](C)C(=O)NCC(=O)NCC(=O)N1CCC[C@H]1C(=O)N[C@@H](CO)C(=O)N[C@@H](CO)C(=O)NCC(=O)N[C@@H](C)C(=O)N1CCC[C@H]1C(=O)N1CCC[C@H]1C(=O)N1CCC[C@H]1C(=O)N[C@@H](CO)C(N)=O [Example 4] |  |  |  |  |  |  |  |  | 100 ± 5 |  | > 1000 | 3.5

From patent publication US9474780B2, “GIP and GLP-1 co-agonist compounds” (Eli Lilly and Company, priority 2015, dated 2016)
